Measurements: US20180020667A1, “CHEMICAL COMPOSITIONS THAT PRESENT SYNERGIC EFFECT FOR […] INSECTS IN PERSONAL HYGIENE PRODUCTS, COSMETICS FOR HUMAN USE, IN ANIMALS AND ON INANIMATE SURFACES IN GENERAL” (Universal Chemical Ltda., priority 2016, published 2018)
Where two headings read alike, the source gives them in different places.

How the values were obtained:
[1] = test system: insects; details: cited from earlier work
[2] = test system: insects; assay: Length of protection against insect bites after application on the skin (conducted tests); format: in vivo
Source text: Icaridin and DEET are employed in this synergic mixture as active ingredient.

[3] = 5% active ingredient in the repellent
[4] = 10% active ingredient in the repellent
[5] = 15% active ingredient in the repellent
[6] = 20% active ingredient in the repellent

Row | Compound | Repellent Capacity Length of Protection [1, 3] [h] | Repellent Capacity Length of Protection [1, 4] [h] | Repellent Capacity Length of Protection [1, 5] [h] | Repellent Capacity Length of Protection [1, 6] [h] | Length of protection against insect bites ([1]; concentrations between 20 to 25%) | Length of protection against insect bites ([2]; 10% concentration in the insect repellent) [h] | Length of protection against insect bites ([2]; 20% concentration in the insect repellent) [h] | Repellent Capacity Length of Protection ([1]; 50% active ingredient in the repellent) [h] | Length of protection against insect bites ([1]; concentration of 50%) [h] | Length of protection against insect bites ([2]; 7% concentration in the insect repellent) [h] | Length of protection against insect bites ([2]; 50% concentration in the insect repellent) [h]
1 | CCC(C)OC(=O)N1CCCCC1CCO (stereo not drawn) [Icaridin, 1-piperidinecarboxylic acid, 2-(2-hydroxyethyl)-, 1-methylpropyl ester] | 1.5 | 4 | 7 | 10 | up to 10 hours | 4 | 10 | – | – | – | –
2 | N,N-dimethyl-3-methylbenzamide [DEET] | 1 | 2 | 4 | 6 | – | – | – | 10 | 10 | 2 | 10
